Experiment [1] deals with human glial U-343 cells. As to the kind of experiment: IL-6 ELISA, basal secretion of IL-6. To be noted: inhibitor 20 μM, 24 hours, serum-free medium, untreated control = 100%, read-out: Extracellular IL-6 concentration, % of untreated cells. It counts as cell-based. The method, then:
To analyze basal secretion of IL-6, human glial U-343 cells were cultured in 6 well plates (1.5×10^6 cells/well, Greiner) and treated with specific PEP inhibitors as indicated (20 μM each) for 24 hours in serum-free D-MEM medium (invitrogen). Aliquots of 40 μl conditioned medium were used to quantify the amount of secreted IL-6 by an human-specific IL-6 ELISA (Biosource) following the manufacturer's instructions. All data were obtained in quadruplicate. For the calculation of the IL-6 concentration in the cell culture medium after PEP-inhibitor treatment, the basal IL-6 concentration of the cell culture medium of untreated cell samples was set to 100%. The results of the measurement of the IL-6 concentration with PEP-inhibitor treated cells are presented as % of the untreated cell samples.
In general terms: In an ELISA, binding on a coated surface is turned into a signal by an enzyme label.

Experiment [2] relates to U-343 and SH-SY5Y cells. As to the kind of experiment: β-Amyloid ELISA, secreted β-amyloid peptides 1-40 and 1-42. It counts as cell-based. To be noted: Homo sapiens, inhibitor 20 μM, 24 hours, conditioned medium, untreated cells = 100%, cell line and peptide (1-40/1-42) not given, read-out: Extracellular Aβ-concentration, % of control. The method, then:
The human glioma cell line, U-343 and the human neuroblastoma cell line, SH-SY5Y were maintained in Dulbecco's modified Eagle's medium (DMEM) containing 10% fetal bovine serum (Gibco BRL, Karlsruhe, Germany) and incubated at 37° C. in a 5% CO2 atmosphere. Culture media contained in general 60 μg/ml gentamycin (Gibco BRL, Karlsruhe, Germany).
To quantify intracellular and extracellular concentrations of 0-amyloid peptides, 1-40 and 1-42, U-343 and SH-SY5Y cells were cultured in 6 well plates (1.5×10^6 cells/well) and treated with specific PEP inhibitors (20 μM each) for 24 hours. For quantitation of secreted β-amyloid peptides the conditioned medium was collected and concentrated by lyophylisation. Likewise, after determination of the cell numbers/well (casy cell counter I, Schärfe System, Reutlingen, Germany), cells were lyzed with cell extraction buffer (Biosource, Solingen, Germany) according to the manufacturer's protocol. The protein concentration was determined by the method of Bradford (1976). Aliquots of 100 μl were used to quantify β-amyloid peptides 1-40 and 1-42 in quadruplicate by ELISA (IBL, Hamburg, Germany) following the manufacturer's instructions. All obtained intracellular and extracellular concentrations were normalized to cell numbers and protein concentration, respectively.
For the calculation of the concentration of β-amyloid peptides 1-40 and 1-42 in the cell culture medium after PEP-inhibitor treatment, the basal concentration of β-amyloid peptides 1-40 and 1-42 in the cell culture medium of untreated cell samples was set to 100%. The results of the measurement of the concentration of β-amyloid peptides 1-40 and 1-42 with PEP-inhibitor treated cells are presented as % of the untreated cell samples.

As to `O=C(OCc1cccc(C(F)(F)F)c1)c1ccccc1C(=O)c1cccs1` [Example 36], the activity at 20 µM in experiment [1] was found to be 79.8%.

On to `Cc1ccc(CCOC(=O)c2ccccc2C(=O)c2cccs2)cc1` [Example 16, 2-(4-Methylphenylethyl-oxycarbonyl)-phenylthenon], for which the activity at 20 µM in experiment [1] came to 26.7%; in experiment [2], 180%.

For `O=C(OCc1ccco1)c1ccccc1C(=O)c1cccs1` [Example 13, 2-(Furyl-methyl-oxycarbonyl)-phenylthenon], the values for the activity at 20 µM in experiment [1] and in experiment [2] were 74.2% and 122%, respectively.

Turning to `O=C(OCc1ccccc1Cl)c1ccccc1C(=O)c1cccs1` [Example 21], the activity at 20 µM in experiment [1] came out at 62.1%; in experiment [2], 220%.

For the molecule `O=C(OCCCc1cccs1)c1ccccc1C(=O)c1cccs1` [Example 25], the activity at 20 µM in experiment [1] turned out to be 69%; in experiment [2], 197%.

For `O=C(OCCc1ccccc1)[C@H]1CCCC[C@H]1C(=O)c1cccs1` [Example 28], in experiment [1], the activity at 20 µM amounted to 78.8%.

As to `O=C(OCCc1ccccc1)c1ccccc1C(=O)c1cccs1` [Example 2], the activity at 20 µM was found to be 65.5% in experiment [1] and 214% in experiment [2].

For the molecule `O=C(OCCc1ccccc1)c1ccccc1C(=O)c1ccco1` [Example 15, 2-(Phenyl-ethyl-oxycarbonyl)-1-(furylcarbonyl)-benzol], the activity at 20 µM in experiment [1] is 48.2%; in experiment [2], 144%.

As to `O=C(OCCc1cccc([N+](=O)[O-])c1)c1ccccc1C(=O)c1cccs1` [Example 34], the activity at 20 µM in experiment [1] was 78.8%.

Take `O=C(OCc1cccc([N+](=O)[O-])c1)c1ccccc1C(=O)c1cccs1` [Example 22]: the activity at 20 µM in experiment [1] is 103%; in experiment [2], 153%.

In the case of `COc1cccc(CCOC(=O)c2ccccc2C(=O)c2cccs2)c1` [Example 35], the activity at 20 µM in experiment [1] stood at 46.7%.

Consider `O=C(OCc1ccc(F)cc1)c1ccccc1C(=O)c1cccs1` [Example 42], for which the activity at 20 µM in experiment [1] was found to be 32.4%.

Consider `O=C(OCc1ccc([N+](=O)[O-])cc1)c1ccccc1C(=O)c1cccs1` [Example 3], for which the activity at 20 µM in experiment [1] stood at 245%; in experiment [2], 141%.

As to `O=C(OCCc1ccccc1[N+](=O)[O-])c1ccccc1C(=O)c1cccs1` [Example 33], the activity at 20 µM in experiment [1] was determined as 54.5%.

For the molecule `O=C(OCCc1cc2ccccc2s1)c1ccccc1C(=O)c1cccs1` [Example 24, 2-(Benzo[b]thiophen-2-yl-ethyl-oxycarbonyl)-phenylthenon], the activity at 20 µM is 66.9% in experiment [1] and 165% in experiment [2].

On to `CCCCCCOC(=O)c1ccccc1C(=O)c1cccs1` [Example 39], for which the activity at 20 µM in experiment [1] turned out to be 50.2%.

Regarding `Cc1cccc(CCOC(=O)c2ccccc2C(=O)c2cccs2)c1` [Example 6], the activity at 20 µM in experiment [1] was 45.8%; in experiment [2], 215%.

For `O=C(NCCCc1ccccc1)c1ccccc1C(=O)c1cccs1` [Example 31], the figures for the activity at 20 µM in experiment [1] and in experiment [2] were 30% and 203%, respectively.

With `O=C(OCCc1ccccc1Cl)c1ccccc1C(=O)c1cccs1` [Example 26], the activity at 20 µM turned out to be 36.6% in experiment [1] and 207% in experiment [2].

For `O=C(OCCc1ccc(Cl)cc1)c1ccccc1C(=O)c1cccs1` [Example 37], the activity at 20 µM in experiment [1] stood at 72.5%.

Take `O=C(NCCc1ccccc1)c1ccccc1C(=O)c1ccco1` [Example 32]: the activity at 20 µM in experiment [1] turned out to be 32%; in experiment [2] it was 63.9%.

Take `O=C(NC1CC1c1ccccc1)c1ccccc1C(=O)c1cccs1` (stereo not shown) [Example 45]: the activity at 20 µM in experiment [1] came to 22%.

As to `O=C(OCc1ccccc1)c1ccccc1C(=O)c1cccs1` [Example 1], the activity at 20 µM in experiment [1] is 92.6%; in experiment [2] it was 197%.

With `O=C(OCCc1ccsc1)c1ccccc1C(=O)c1cccs1` [Example 17], the results for the activity at 20 µM in experiment [1] and in experiment [2] were 26.5% and 237%, respectively.

`O=C(OCc1cccc(Cl)c1)c1ccccc1C(=O)c1cccs1` [Example 20]: the values for the activity at 20 µM in experiment [1] and in experiment [2] were 49.2% and 180%, respectively.

In the case of `O=C(OCCc1cccc(Cl)c1)c1ccccc1C(=O)c1cccs1` [Example 12], the figures for the activity at 20 µM in experiment [1] and in experiment [2] were 53.7% and 191%, respectively.

`O=C(OCCCc1ccccc1)c1ccccc1C(=O)c1cccs1` [Example 11]: the activity at 20 µM was 42.4% in experiment [1] and 192% in experiment [2].

For the molecule `O=C(OCc1ccccc1Br)c1ccccc1C(=O)c1cccs1` [Example 40], the activity at 20 µM in experiment [1] came out at 36%.

As for `O=C(OCc1ccccc1[N+](=O)[O-])c1ccccc1C(=O)c1cccs1` [Example 23], the activity at 20 µM amounted to 109% in experiment [1] and 240% in experiment [2].

Consider `O=C(OCC1c2ccccc2-c2ccccc21)c1ccccc1C(=O)c1cccs1` [Example 4, 2-(Fluorenyl-methyl-oxycarbonyl)-phenylthenon], for which the activity at 20 µM in experiment [1] was 40.7%; in experiment [2], 200%.

For the molecule `O=C(NCc1ccccc1)c1ccccc1C(=O)c1cccs1` [Example 29, 2-(Phenylmethyl-amincarbonyl)-phenylthenon], the activity at 20 µM worked out at 121% in experiment [1] and 109% in experiment [2].

With `O=C(OCCc1cccs1)c1ccccc1C(=O)c1cccs1` [Example 14, 2-(Thienyl-ethyl-oxycarbonyl)-phenylthenon], the activity at 20 µM in experiment [1] was 41.4%; in experiment [2] it was 200%.

For the molecule `O=C(OCc1ccc(Cl)cc1)c1ccccc1C(=O)c1cccs1` [Example 19, 2-(4-Chlorophenyl-methyl-oxycarbonyl)-phenylthenon], the activity at 20 µM in experiment [1] is 35.2%; in experiment [2], 195%.

Consider `O=C(OCCc1cccc(F)c1)c1ccccc1C(=O)c1cccs1` [Example 38], for which the activity at 20 µM in experiment [1] stood at 33%.

`O=C(OCCc1ccccc1)[C@@H]1CCCC[C@H]1C(=O)c1cccs1` (relative stereo) [Example 27, trans-1-(Thienylcarbonyl)-2-(phenyl-ethyl-oxycarbonyl)-cyclohexane]: the activity at 20 µM in experiment [1] was 19.6%; in experiment [2] it was 298%.

Take `O=C(NCCc1ccccc1)c1ccccc1C(=O)c1cccs1` [Example 30]: the activity at 20 µM in experiment [1] worked out at 42.3%; in experiment [2], 205%.

Consider `O=C(OCCc1cccc(O)c1)c1ccccc1C(=O)c1cccs1` [Example 46], for which the activity at 20 µM in experiment [1] was 35.8%.

As to `O=C(OCCc1ccc(F)cc1)c1ccccc1C(=O)c1cccs1` [Example 43], in experiment [1], the activity at 20 µM was determined as 29.2%.

For `O=C(OCCN1C(=O)c2ccccc2C1=O)c1ccccc1C(=O)c1cccs1` [Example 10, 2-(Isoindolinyl-1,3-dione-ethyl-oxycarbonyl)-phenylthenon], the activity at 20 µM in experiment [1] amounted to 143%; in experiment [2] it was 125%.

On to `O=C(OCCc1ccc([N+](=O)[O-])cc1)c1ccccc1C(=O)c1cccs1` [Example 5, 2-(4-Nitrophenyl-ethyl-oxycarbonyl)-phenylthenon], for which the results for the activity at 20 µM in experiment [1] and in experiment [2] were 102% and 160%, respectively.

Consider `O=C(OCc1ccccc1F)c1ccccc1C(=O)c1cccs1` [Example 41], for which the activity at 20 µM in experiment [1] is 46.4%.

For the molecule `O=C(OCc1cccc(Cl)c1Cl)c1ccccc1C(=O)c1cccs1` [Example 44], the activity at 20 µM in experiment [1] is 26.5%.

For the molecule `O=C(OCCc1ccc2ccccc2c1)c1ccccc1C(=O)c1cccs1` [Example 8], the activity at 20 µM in experiment [1] amounted to 93.7%; in experiment [2] it was 165%.

As for `O=C(OC1Cc2ccccc2C1)c1ccccc1C(=O)c1cccs1` [Example 7, 2-([2,3-Dihydro-1H-indene-2-yl]-oxycarbonyl)-phenylthenon], the values for the activity at 20 µM in experiment [1] and in experiment [2] were 85.3% and 205%, respectively.

Source of the values: patent US7592467B2, “Inhibitors of prolyl endopeptidase” (Probiodrug AG, priority 2005, dated 2009).
